Molecular target: T1, Human M4 receptors (Homo sapiens, UniProt P08173)
T1 construct: expressed in transfected cells
T1 sequence (P08173 1-479): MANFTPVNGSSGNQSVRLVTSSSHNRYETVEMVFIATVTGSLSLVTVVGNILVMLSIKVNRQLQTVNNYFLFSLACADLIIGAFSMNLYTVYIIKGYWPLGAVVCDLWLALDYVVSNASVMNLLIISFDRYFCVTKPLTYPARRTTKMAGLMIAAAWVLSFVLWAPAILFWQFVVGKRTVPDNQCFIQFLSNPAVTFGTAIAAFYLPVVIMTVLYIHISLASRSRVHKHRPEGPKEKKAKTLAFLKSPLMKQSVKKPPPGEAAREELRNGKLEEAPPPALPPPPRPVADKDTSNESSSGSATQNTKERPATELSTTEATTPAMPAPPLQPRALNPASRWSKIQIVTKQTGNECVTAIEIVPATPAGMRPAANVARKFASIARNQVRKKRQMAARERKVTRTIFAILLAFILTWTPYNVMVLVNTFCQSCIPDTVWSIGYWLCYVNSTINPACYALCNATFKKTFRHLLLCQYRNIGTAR
Experiment: M4 PAM cAMP assay (GloSensor)
Assay type: cell-based
Conditions: HEK293 GloSensor cells expressing hM4, with EC20 acetylcholine and isoproterenol, geometric mean of 2-4 determinations unless footnoted (b: >=5, c: single); for Emax / EC50 Mean Asymptote Maximum (%): Emax = maximum asymptote of fitted dose response curve; for Emax: read-out: EC50 Mean Asymptote Maximum (%)
Procedure: The M4 cAMP assay was designed to determine the potency and efficacy of muscarinic positive allosteric modulators (PAMs). Human M4 receptors were stably expressed in Human embryonic kidney (HEK293) cells expressed with the Promega GloSensor™ cAMP technology.
HEK293 GloSensor cells expressing hM4 cells were cultured in growth media containing DMEM with 10% FBS, 1% Penicillin/Streptomycin, 500 μg/mL G418, 200 μg/mL Hygomycin B, and 1% Glutamax. When cells had grown to 80%-90% confluency, cells were harvested and seeded at a density of 25,000 cells/40 μL well, in a 384 white walled plates (Becton Dickinson 356661). Plates were incubated at 37 degrees C. and 5% CO2 for use after 24 hours.
Compound Preparation for Activator Screen:
Test compounds were initially prepared as 100% DMSO stock solutions, then transferred and serially diluted in 384-well compound plates (Matrix #4325). Each compound was tested at 10 concentrations in duplicate per experiment. Compound plates are spotted with 0.2 μL/well activator at 400 times the final assay concentration. Positive and negative controls for the compound alone activator response was 10 μM acetylcholine (Sigma # A2661) and DMSO, respectively. EC20 of acetylcholine was also used to define PAM activities.
Promega GloSensor™reagent (Promega # E1291) had previously been aliquotted. For each experiment, a stock solution of GloSensor™ was thawed out and equilibration medium was prepared with 88% CO2-independent media (Invitrogen #18045088), 10% fetal bovine serum and 2% GloSensor™ cAMP Reagent stock solution. Stock solution was mixed. Culture media in cell plates was discarded, then replaced with 40 μL/well pre-warmed equilibration media, then incubated in the dark at room temperature for 2 hours. During the incubation, stimulation media containing agonist and EC20 acetylcholine was prepared. CO2-independent media containing 50 […] Isoproterenol representing an EC80 of b-adrenergic receptor activity (Sigma #16504, 400 times final concentration) and EC20 acetylcholine in 1.25% DMSO was added to all columns of the compound plate, with the exception of column 12 to allow for EC0 control. […] Compounds are now 5 times the final assay concentration. The plate was mixed using a plate agitator. At the end of the 2 hour GloSensor™ incubation, add 10 μL of the CO2-independent media containing agonist, EC20 acetylcholine and isoproterenol to the cell plate. Cell plate was then incubated for 10 minutes at room temperature, and then read using an EnVision plate reader (Perkin Elmer).
Data was exported from the EnVision plate reader. The percent effect for each well was determined using the mean values for the positive and negative controls on each plate for each read, specifically 100*(compound−negative control)/(positive control−negative control). Dose response curves were fitted to the compound percent effect data using a 4-parameter logistic fit model. Data was reported as EC50 and Emax, with the Emax as the maximum asymptote of the fitted dose response curve.

Row | Emax [%] | EC50 [nM] | EC50 Mean Asymptote Maximum (%) | SMILES
1 | 115 | 2.05 |  | CNc1nc(C)c(C)c2c1CN(C(=O)C[C@@H]1C[C@H]1c1ccc(C)nc1)C2 (single isomer, unassigned) [Example 47, 1-[6,7-dimethyl-4-(methylamino)-1,3-dihydro-2H-pyrrolo[3,4-c]pyridin-2-yl]-2-[trans-2-(6-methylpyridin-3-yl)cyclopropyl]ethanone]
2 |  | 99.4 | 111% | Cc1nc(N)c2c(c1C)CN(C(=O)C[C@@H]1C[C@H]1c1ccc(F)nc1)C2 (single isomer, unassigned) [Example 9, 1-(4-Amino-6,7-dimethyl-1,3-dihydro-2H-pyrrolo[3,4-c]pyridin-2-yl)-2-[trans-2-(6-fluoropyridin-3-yl)cyclopropyl]ethanone]
3 |  | 795 | 148% | CNc1nc(C)c(C)c2c1CN(C(=O)C[C@@H]1C[C@H]1c1ccc(F)nc1)C2 (single isomer, unassigned) [Example 15, 1-[6,7-dimethyl-4-(methylamino)-1,3-dihydro-2H-pyrrolo[3,4-c]pyridin-2-yl]-2-[trans-2-(6-fluoropyridin-3-yl)cyclopropyl]ethanone]
4 |  | 9.99 | 95.3% | Cc1c2c(c(=O)n(C)c1C)CN(C(=O)C[C@@H]1C[C@H]1c1cccnc1)C2 (single isomer, unassigned) [Example 27, 5,6,7-trimethyl-2-{[trans-2-(pyridin-3-yl)cyclopropyl]acetyl}-1,2,3,5-tetrahydro-4H-pyrrolo[3,4-c]pyridin-4-one]
5 | 94.8 | < 1.7 |  | CNc1nc(C)c(C)c2c1CN(C(=O)C[C@H]1C[C@@H]1c1cncnc1)C2 (racemic) [Example 28, 1-[6,7-dimethyl-4-(methylamino)-1,3-dihydro-2H-pyrrolo[3,4-c]pyridin-2-yl]-2-[trans-2-(pyrimidin-5-yl)cyclopropyl]ethanone]
6 | 96.1 | 4.33 |  | CNc1nc(C)c(C)c2c1CN(C(=O)CC1CN(c3ncns3)C1)C2 [Example 2, 1-[6,7-Dimethyl-4-(methylamino)-1,3-dihydro-2H-pyrrolo[3,4-c]pyridin-2-yl]-2-[1-(1,2,4-thiadiazol-5-yl)azetidin-3-yl]ethanone]
7 | 97.7 | 3.26 |  | CNc1nc(C)c(C)c2c1CN(C(=O)CC1CN(c3ccc(F)nc3)C1)C2 [Example 51, 1-[6,7-dimethyl-4-(methylamino)-1,3-dihydro-2H-pyrrolo[3,4-c]pyridin-2-yl]-2-[1-(6-fluoropyridin-3-yl)azetidin-3-yl]ethanone]
8 | 93.5 | 3.47 |  | CNc1nc(C)c(C)c2c1CN(C(=O)CC1CN(c3nncs3)C1)C2 [Example 37, 1-[6,7-dimethyl-4-(methylamino)-1,3-dihydro-2H-pyrrolo[3,4-c]pyridin-2-yl]-2-[1-(1,3,4-thiadiazol-2-yl)azetidin-3-yl]ethanone]
9 | 99 | 1.24 |  | Cc1nc(N)c2c(c1C)CN(C(=O)C[C@@H]1C[C@H]1c1ccc(F)nc1)C2 (single isomer, unassigned) [Example 8, 1-(4-Amino-6,7-dimethyl-1,3-dihydro-2H-pyrrolo[3,4-c]pyridin-2-yl)-2-[trans-2-(6-fluoropyridin-3-yl)cyclopropyl]ethanone]
10 |  | 1.6 | 94.8^b % | CNc1nc(C)c(C)c2c1CN(C(=O)C[C@@H]1C[C@H]1c1cccnc1)C2 (single isomer, unassigned) [Example 11, 1-[6,7-Dimethyl-4-(methylamino)-1,3-dihydro-2H-pyrrolo[3,4-c]pyridin-2-yl]-2-[trans-2-(pyridin-3-yl)cyclopropyl]ethanone]
11 | 97.7 | 13.6 |  | CNc1nc(C)c(C)c2c1CN(C(=O)CC1CN(c3ccnc(C)c3)C1)C2 [Example 35, 1-[6,7-dimethyl-4-(methylamino)-1,3-dihydro-2H-pyrrolo[3,4-c]pyridin-2-yl]-2-[1-(2-methylpyridin-4-yl)azetidin-3-yl]ethanone]
12 |  | > 10000 |  | CNc1nc(C)c(C)c2c1CN(C(=O)C[C@@H]1C[C@H]1c1ccc(C)nc1)C2 (single isomer, unassigned) [Example 46, 1-[6,7-dimethyl-4-(methylamino)-1,3-dihydro-2H-pyrrolo[3,4-c]pyridin-2-yl]-2-[trans-2-(6-methylpyridin-3-yl)cyclopropyl]ethanone]
13 | 92 | 50.6 |  | CNc1nc(C)c(C)c2c1CN(C(=O)OC1Cc3cccnc3C1)C2 (stereo not drawn) [Example 6, 6,7-Dihydro-5H-cyclopenta[b]pyridin-6-yl 6,7-dimethyl-4-(methylamino)-1,3-dihydro-2H-pyrrolo[3,4-c]pyridine-2-carboxylate]
14 | 99.7 | 0.626 |  | Cc1nc(NCC2CC2)c2c(c1C)CN(C(=O)CC1CN(c3ccncn3)C1)C2 [Example 22, 1-{4-[(cyclopropylmethyl)amino]-6,7-dimethyl-1,3-dihydro-2H-pyrrolo[3,4-c]pyridin-2-yl}-2-[1-(pyrimidin-4-yl)azetidin-3-yl]ethanone]
15 | 95.5 | 149 |  | CNc1nc(C)c(C)c2c1CN(C(=O)[C@@H]1CCOC1)C2 [Example 59, [6,7-dimethyl-4-(methylamino)-1,3-dihydro-2H-pyrrolo[3,4-c]pyridin-2-yl][(3R)-tetrahydrofuran-3-yl]methanone]
16 | 97 | 30.9 |  | CNc1nc(C)c(C)c2c1CN(C(=O)CC1Cc3ccc(F)cc3C1)C2 (single isomer, unassigned) [Example 57, 1-[6,7-dimethyl-4-(methylamino)-1,3-dihydro-2H-pyrrolo[3,4-c]pyridin-2-yl]-2-(5-fluoro-2,3-dihydro-1H-inden-2-yl)ethanone]
17 | 114 | 197 |  | CNc1nc(C)c(C)c2c1CN(C(=O)C[C@@H]1C[C@H]1c1cccnc1)C2 (single isomer, unassigned) [Example 10, 1-[6,7-Dimethyl-4-(methylamino)-1,3-dihydro-2H-pyrrolo[3,4-c]pyridin-2-yl]-2-[trans-2-(pyridin-3-yl)cyclopropyl]ethanone]
